Assay results published in PubChem BioAssay AID1357 (Sanford-Burnham Center for Chemical Genomics, 2008).
The source made the active and inactive calls.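 The calls were made as follows: active = no band for the stress protein CHOP on the immunoblot after the stress trigger, its induction blocked; inactive = CHOP band still seen after the stress trigger.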

System: CSM14.1 cells, thapsigargin-induced CHOP Western blot
Assay: inhibitors of CHOP induction, mechanism study for ER stress cell death inhibitors, thapsigargin stimulus, CSM14.1 cells, Western blot (AID 1357)

In the case of CCCOc1ccc(C2Nc3ccccc3NC3=C2C(=O)CC(c2ccc(OC)c(OC)c2)C3)cc1 (stereo unspecified), the outcome is reported as “inactive”.

COc1ccc(C2CC(=O)C3=C(C2)Nc2ccccc2NC3c2cccc(C(F)(F)F)c2)cc1OC (stereo unspecified) was tested, and the outcome was “inactive”.

With O=C1CC(c2ccccc2)CC2=C1C(c1c(F)cccc1Cl)Nc1ccccc1N2 (stereo unspecified) the outcome was “inactive”.

For COc1ccc(C2CC(=O)C3=C(C2)Nc2ccccc2NC3c2cccc(Oc3ccccc3)c2)cc1OC (stereo unspecified), the outcome was “inactive”.

CCOc1cccc(C2Nc3ccccc3NC3=C2C(=O)CC(c2ccc(OC)cc2)C3)c1 (stereo unspecified) was tested, and the outcome was “inactive”.

CC1(C)CC(=O)C2=C(C1)Nc1ccccc1NC2c1ccc(-c2ccccc2)cc1 (stereo unspecified) was tested, and the outcome was “inactive”.

For COc1ccc(C2CC(=O)C3=C(C2)Nc2ccccc2NC3c2cccc(Br)c2)cc1OC (stereo unspecified), the outcome was “inactive”.

In the case of COc1ccc(C2CC(=O)C3=C(C2)Nc2ccccc2NC3c2cc(C)ccc2C)cc1 (stereo unspecified), the outcome is reported as “inactive”.

COc1ccc(C2CC(=O)C3=C(C2)Nc2ccccc2NC3c2ccccc2C(F)(F)F)cc1OC (stereo unspecified) was tested, and the outcome was “inactive”.

With CCOc1cc(C2Nc3ccccc3NC3=C2C(=O)CC(c2ccc(OC)cc2)C3)cc(Cl)c1O (stereo unspecified) the outcome was “inactive”.

CSc1ccc(C2Nc3ccccc3NC3=C2C(=O)CC(c2ccccc2)C3)cc1 (stereo unspecified) was tested, and the outcome was “inactive”.
